Consider seven compounds from patent publication US8735388B2, “Heterocyclic compounds with affinity to muscarinic receptors” (Abbvie B. V. A., priority 2007, dated 2014).

Data set [1] concerns the target T1, Muscarine M4 (GPCR-A-MA-ACH M4) (Homo sapiens, UniProt P08173).
T1 construct: expressed in transfected cells; host or cells: CHO cells
T1 sequence (P08173 1-479): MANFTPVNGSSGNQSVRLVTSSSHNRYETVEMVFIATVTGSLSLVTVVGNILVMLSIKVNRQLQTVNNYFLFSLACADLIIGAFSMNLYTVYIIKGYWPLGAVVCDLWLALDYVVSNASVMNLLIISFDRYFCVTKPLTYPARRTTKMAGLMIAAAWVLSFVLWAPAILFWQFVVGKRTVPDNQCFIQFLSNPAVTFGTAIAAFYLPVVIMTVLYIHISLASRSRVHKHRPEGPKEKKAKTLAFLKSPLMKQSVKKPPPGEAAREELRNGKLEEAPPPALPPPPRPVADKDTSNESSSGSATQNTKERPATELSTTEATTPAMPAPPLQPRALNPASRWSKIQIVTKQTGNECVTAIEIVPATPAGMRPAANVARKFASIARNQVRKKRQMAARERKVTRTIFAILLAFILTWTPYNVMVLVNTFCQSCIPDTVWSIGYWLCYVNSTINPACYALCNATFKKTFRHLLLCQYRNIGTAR
The settings on record: read-out: Ligand Kd; cited from earlier work.

The target of data set [2] is T2, Muscarine M2 (GPCR-A-MA-ACH M2) (Homo sapiens, UniProt P08172).
T2 construct: expressed in transfected cells; host or cells: CHO cells
T2 sequence (P08172 1-466): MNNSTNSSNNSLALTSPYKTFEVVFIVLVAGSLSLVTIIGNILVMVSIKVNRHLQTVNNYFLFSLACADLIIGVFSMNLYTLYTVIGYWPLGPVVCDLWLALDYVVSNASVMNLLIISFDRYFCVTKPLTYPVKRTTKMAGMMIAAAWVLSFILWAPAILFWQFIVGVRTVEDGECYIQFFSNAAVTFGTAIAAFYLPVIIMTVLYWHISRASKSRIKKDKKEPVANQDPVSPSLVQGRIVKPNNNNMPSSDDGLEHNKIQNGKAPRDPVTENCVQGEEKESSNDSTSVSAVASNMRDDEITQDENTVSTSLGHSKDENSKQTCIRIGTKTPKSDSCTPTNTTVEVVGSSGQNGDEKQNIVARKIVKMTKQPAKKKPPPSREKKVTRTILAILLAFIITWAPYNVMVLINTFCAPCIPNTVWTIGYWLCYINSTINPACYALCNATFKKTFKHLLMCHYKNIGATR
The settings on record: read-out: Ligand Kd; cited from earlier work.

Data set [3] concerns the target T3, Muscarine M1 (GPCR-A-MA-ACH M1) (Homo sapiens, UniProt P11229).
T3 construct: expressed in transfected cells; host or cells: CHO cells
T3 sequence (P11229 1-460): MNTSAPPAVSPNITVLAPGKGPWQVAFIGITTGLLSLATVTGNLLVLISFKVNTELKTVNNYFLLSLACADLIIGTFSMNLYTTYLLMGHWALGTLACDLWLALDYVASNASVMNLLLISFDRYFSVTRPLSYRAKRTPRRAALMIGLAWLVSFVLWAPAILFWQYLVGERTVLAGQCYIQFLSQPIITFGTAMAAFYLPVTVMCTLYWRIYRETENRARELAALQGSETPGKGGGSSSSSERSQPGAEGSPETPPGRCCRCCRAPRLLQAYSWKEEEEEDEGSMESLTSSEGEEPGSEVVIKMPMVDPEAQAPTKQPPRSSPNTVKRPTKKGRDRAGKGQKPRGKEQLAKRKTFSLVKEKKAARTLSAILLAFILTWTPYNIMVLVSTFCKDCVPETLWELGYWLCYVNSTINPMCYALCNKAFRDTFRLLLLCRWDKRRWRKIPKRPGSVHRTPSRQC
Kind of data set: Muscarine M1 cell-based functional assay (CHO cells, Ca2+ - FLIPR Fluorimetry). The following applies: read-out: Cell funct. Musc. M1 Agonism pEC50 (converted).

The nature of data set [4]: Stability in human liver homogenate (metabolic stability in vitro). It is filed as in vitro ADME. The settings on record: read-out: t ½. The text has this: DÖRJE, F., WESS, J., LAMBRECHT, G., TACKE, R., […], E. and BRANN, M. R. (1991) Antagonist binding profiles of five cloned human muscarinic receptor subtypes. J. Pharmacol. Exp. Ther., 256: 727-733. • […], M. H. (1990) Rat hippocampal muscarinic autoreceptors are similar to the M2 (cardiac) subtype: comparison with hippocampal M1, atrial M2 and ileal M3 receptors. Brit. J. Pharmacol., 99: 753-761. • PERALTA, E. G., ASHKENAZI, A., WINSLOW, J. W., SMITH, D. H., […], J. and CAPON, D. J. (1987) Distinct primary structures, ligand-binding properties and tissue-specific expression of four human muscarinic acetylcholine receptors. EMBO. J., 6: 3923-3929. Determination of Metabolic Stability (In Vitro)
Method used according to procedures described by DI, L. et al., Journal of Biomolecular Screening, Vol. 8, No. 4, 453-462 (2003).

Data set [5] has as its target T1, Muscarine M4 (GPCR-A-MA-ACH M4). Kind of data set: Muscarine M4 cell-based functional assay (CHO cells, Ca2+ - Aequorin luminescence). The settings on record: for EC50: human M4, CHO cells, agonist mode, reference agonist oxotremorine, read-out: Cell funct. Musc. M4 Agonism pEC50 (converted). In outline:
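CHO cells expressing human M4 were exposed to compound, with Ca2+ response read by aequorin luminescence. Compounds were first tested at 1 μM, then at 10-fold lower concentrations if active; stimulation or inhibition was relative to the reference agonist. EC50/IC50 came from Hill-equation fits.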

Data set [6] deals with T3, Muscarine M1 (GPCR-A-MA-ACH M1). Kind of data set: Muscarine M1 receptor binding, 3H-Pirenzepine. The following applies: human M1, CHO cells, ligand 2 nM, 60 min/22° C., read-out: RB Musc. M1 3H-Pirenzepine pKi (converted). In outline:
(§1)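 Human M1 ([3H]-pirenzepine), M3, and M4 ([3H]-4DAMP or [3H]-oxotremorine) receptor preparations incubated with radioligand and compound, first at 10 μM, then at 10-fold lower concentrations if inhibition exceeded 40%. Bound ligand separated by glass-fibre filtration and counted by scintillation. IC50 from Hill fit, converted to Ki via Cheng-Prusoff, reported as pKi.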

The target of data set [7] is T1, Muscarine M4 (GPCR-A-MA-ACH M4). In words: Muscarine M4 receptor binding, 3H-Oxotremorine. The settings on record: for Ki: human M4, CHO cells, receptor binding, ligand 6 nM, 30 min/25° C., read-out: RB Musc. M4 3H-Oxotremorine pKi (converted). Summed up:
as §1

For data set [8] the target is unchanged. In words: Muscarine M4 receptor binding, 3H-4DAMP. The settings on record: human M4, CHO cells, ligand 0.2 nM, 60 min/22° C., read-out: RB Musc. M4 3H-DAMP pKi (converted). In outline: as §1
The target of data set [9] is T2, Muscarine M2 (GPCR-A-MA-ACH M2). Kind of data set: Muscarine M2 receptor binding.
For data set [10], the target named is T4, Muscarine M3 (GPCR-A-MA-ACH M3) (Homo sapiens, UniProt P20309).
T4 construct: expressed in transfected cells; host or cells: CHO cells
Kind of data set: Muscarine M3 receptor binding.

Data set [11] concerns the target T5, Muscarine M2 (GPCR-A-MA-ACH M2) (Cavia porcellus, UniProt H0VRN8).
T5 construct: from tissue; host or cells: guinea pig left atrium (electrically paced)
T5 sequence (H0VRN8 1-466): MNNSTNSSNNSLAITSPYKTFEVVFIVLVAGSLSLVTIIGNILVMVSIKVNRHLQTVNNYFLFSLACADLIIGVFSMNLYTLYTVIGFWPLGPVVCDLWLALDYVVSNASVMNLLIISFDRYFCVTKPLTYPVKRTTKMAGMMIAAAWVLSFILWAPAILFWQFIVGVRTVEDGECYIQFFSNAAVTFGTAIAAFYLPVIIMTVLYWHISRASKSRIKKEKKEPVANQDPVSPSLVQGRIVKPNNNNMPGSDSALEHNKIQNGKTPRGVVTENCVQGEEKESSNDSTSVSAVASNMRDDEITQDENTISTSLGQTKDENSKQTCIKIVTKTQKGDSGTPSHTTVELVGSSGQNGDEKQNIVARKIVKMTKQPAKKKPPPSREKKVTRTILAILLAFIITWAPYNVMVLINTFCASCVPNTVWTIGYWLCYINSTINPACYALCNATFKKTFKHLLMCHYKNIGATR
In words: Muscarine M2 functional assay, isolated organ (left atrium, electrically paced), agonist and antagonist mode. More on the design: species or system Guinea Pig.

For data set [12], the target named is T6, Muscarine M3 (GPCR-A-MA-ACH M3) (Cavia porcellus, UniProt H0W1Z3).
T6 construct: from tissue; host or cells: guinea pig ileum
Kind of data set: Muscarine M3 functional assay, isolated organ (ileum), agonist and antagonist mode. Also noted: species or system Guinea Pig.

The subject of data set [13] is Muscarine M1 (GPCR-A-MA-ACH M1). In words: Muscarine M1 functional assay, isolated organ (vas deferens, field-stimulated). The settings on record: assay characteristic; Muscarine M1, rabbit vas deferens, inhibition of twitch contraction; read-out: Reference Agonist Ligand EC50. As to the method:
Compounds were dissolved in DMSO (10 mM) and diluted in assay buffer to test concentration. Prime testing was at 1 μM; for actives in antagonist mode (PI, percent inhibition with respect to reference agonist and blank>30%) as well as actives in agonist mode (PS, percent stimulation with respect to reference agonist and blank>30%) testing was continued at lower concentrations in 10-fold dilutions: 0.1 μM, 0.01 μM, etc.
The tissues were exposed to a maximal concentration of the respective reference agonist to verify responsiveness and to obtain a control response. Following extensive washings and recovery of the initial state, the tissues were exposed to the test compounds or the same agonist. […]
The parameters measured were the maximum change in the amplitude of the electrically-evoked contractions (M1 and M2 receptor assays) or in tension (M3 receptor assay) induced by each compound concentration. The results are expressed as a percent of the control agonist-induced response. The EC50 values of the reference agonists (concentration producing a half-maximum response) and IC50 values of the reference antagonists (concentration producing a half-maximum inhibition of the agonist-induced response) were calculated by […] analysis of their concentration-response curves.

For data set [14] the following is noted: in words, background section; cited from earlier work.
The mark [15] stands for this setting: human M1, CHO cells, agonist mode, reference agonist acetylcholine.

pEC50, pKd, pKi: −log10 of the molar value. Like-named read-outs stand apart in the source and are kept apart here.

T6 sequence (H0W1Z3 1-590): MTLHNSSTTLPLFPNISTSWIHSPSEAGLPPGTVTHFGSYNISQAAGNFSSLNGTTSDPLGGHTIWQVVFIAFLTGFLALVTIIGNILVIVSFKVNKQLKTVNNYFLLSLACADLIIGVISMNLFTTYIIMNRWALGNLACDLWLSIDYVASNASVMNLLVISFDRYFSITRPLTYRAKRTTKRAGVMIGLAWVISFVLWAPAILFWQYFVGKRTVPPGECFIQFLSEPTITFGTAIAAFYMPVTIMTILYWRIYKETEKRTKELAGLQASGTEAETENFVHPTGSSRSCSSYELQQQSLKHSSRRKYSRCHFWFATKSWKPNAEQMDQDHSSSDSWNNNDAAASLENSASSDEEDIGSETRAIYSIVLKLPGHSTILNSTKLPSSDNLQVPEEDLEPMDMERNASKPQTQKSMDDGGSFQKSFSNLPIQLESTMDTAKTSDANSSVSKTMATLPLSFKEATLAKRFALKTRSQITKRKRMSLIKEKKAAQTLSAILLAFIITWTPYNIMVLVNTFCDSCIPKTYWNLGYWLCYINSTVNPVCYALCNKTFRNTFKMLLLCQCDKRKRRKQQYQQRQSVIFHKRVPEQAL
T4 sequence (P20309 whole entry): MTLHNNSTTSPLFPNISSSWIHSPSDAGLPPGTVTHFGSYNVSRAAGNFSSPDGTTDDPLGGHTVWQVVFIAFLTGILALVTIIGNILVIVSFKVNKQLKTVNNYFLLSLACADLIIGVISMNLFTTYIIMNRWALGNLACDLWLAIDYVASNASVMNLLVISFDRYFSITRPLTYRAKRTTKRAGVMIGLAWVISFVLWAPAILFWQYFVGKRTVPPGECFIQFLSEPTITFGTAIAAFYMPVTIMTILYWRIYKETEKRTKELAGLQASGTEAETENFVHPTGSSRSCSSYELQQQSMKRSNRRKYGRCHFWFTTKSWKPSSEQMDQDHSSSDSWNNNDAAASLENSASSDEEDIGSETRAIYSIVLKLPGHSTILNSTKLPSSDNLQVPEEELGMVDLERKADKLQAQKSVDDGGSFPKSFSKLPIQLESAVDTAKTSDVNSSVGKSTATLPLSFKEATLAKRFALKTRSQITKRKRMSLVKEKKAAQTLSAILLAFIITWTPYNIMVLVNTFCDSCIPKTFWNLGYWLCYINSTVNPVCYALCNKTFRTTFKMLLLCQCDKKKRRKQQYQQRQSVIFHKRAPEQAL

In the case of 3H-Oxotremorine, the pKd in data set [1] was 8.35.
Turning to `CCCN(CCC)CC1CCCCN1CCNC(=O)N1c2ccccc2C(=O)Nc2cccnc21` (stereo not shown) [Compound 3H-AFDX384, 3H-AFDX384], the pKd in [2] was 8.37.
In the case of `CN1CCC=C(c2n[nH]cc2SCCCC(F)(F)F)C1` [Compound 22B, 3-[4-(4,4,4-trifluoro-butylsulfanyl)-1H-pyrazol-3-yl]-1,2,5,6-tetrahydro-1-methylpyridine], the EC50 in [3] (setting [15]) was 0.0794 µM; in data set [5], 0.501 µM. In data set [4], the half-life is 52 min. The values for the Ki in data set [6], in data set [7] and in data set [8] were 0.501 µM, 0.398 µM and 0.126 µM, respectively.
The compound `CCCCCSc1c[nH]nc1C1=CCCN(C)C1` [Compound 22G, 3-(4-Pentylsulfanyl-1H-pyrazol-3-yl)-1,2,5,6-tetrahydro-1-methylpyridine] displayed a melting point of 100 to 101 °C. Moreover, the EC50 in data set [3] (setting [15]) is 0.0398 µM. In addition, in data set [4], the half-life came out at 50 min. The EC50 in [5] was 0.316 µM. Further, the Ki in [6] is 0.2 µM. In [7], the Ki is 0.2 µM. Further, the Ki in data set [8] is 0.0501 µM.
Compound `CCCCCCSc1c[nH]nc1C1CN2CCC1CC2` (stereo not shown) [Compound 49F, 3-(4-Hexylsulfanyl-1H-pyrazol-3-yl)-1-azabicyclo[2.2.2]octane] had a melting point of 130 °C. For the same compound, the EC50 in data set [3] was 0.794 µM. The compound also showed a negative-log Ki (pKi) in data set [9] of 6.40. The compound also had a negative logarithm of the Ki (pKi) in data set [10] of 7.00. The compound further showed a pEC50 in [5] of 7.90. In data set [6], the Ki is 0.251 µM. Moreover, the negative logarithm of the Ki (pKi) in data set [7] is 7.90. This compound had a Kb in [11] of over 1 µM. Further, the EC50 in [11] (read-out: Cell funct. Musc. M2 Agonism pEC50 (converted)) was over 1 µM. The Kb in [12] is over 1 µM. Besides, the EC50 in [12] (read-out: Cell funct. Musc. M3 Agonism pEC50 (converted)) is over 1 µM. For the same compound, the Ki in data set [8] was 0.0501 µM.
On to `C[N+](C)(C)CC#CCOC(=O)Nc1cccc(Cl)c1.[Cl-]` [McN-A-343, reference compound], for which the “Cell funct. Musc. M3 Agonism pEC50” value in data set [12] is on record as 6.9. In addition, the negative logarithm of the EC50 (pEC50) in data set [13] is 6.60.
Consider `CCCCCCOc1nsnc1C1=CCCN(C)C1` [Xanomeline, reference compound], for which the half-life in data set [4] amounted to 17 min. The “(in vitro) metabolic stability” value in data set [14] was “relatively low”.

As a reminder, the pKd is the Kd on a negative log10 scale, so that one unit is a factor of ten. A word on the melting point: it is the temperature, or range, at which the solid turns liquid. As usually defined, the pKi is −log10 of the Ki, conventionally taken in molar units. A higher pKi goes with a low Ki. As a reminder, the pEC50 is the EC50 on a negative log10 scale, so that one unit is a factor of ten. In general, Kb refers to the equilibrium dissociation constant of an antagonist, usually derived from a functional assay. The low end stands for a more potent antagonist, the high end for a less potent antagonist.
